Results published in patent US20030162834A1, “Natural physiologically active material effective on fish diseases and fish food containing the material” (priority 1998, published 2003).

Legend:
[1] = test system: Cryptocaryon irritans; test: Trial 10: immersion of infected tiger puffer in seawater containing octanoic acid; type: in vivo; conditions: 200 ppm for 2 minutes, 3 hours after return to seawater
Description: 300 g of tiger puffer infected with Cryptocaryon irritans was immersed in seawater containing 200 ppm of octanoic acid for 2 minutes, and then returned to seawater again. After 3 hours from return to seawater, the parasites Cryptocaryon irritans and their situations and numbers were observed.

[2] = test system: Cryptocaryon irritans; test: Trial 7: vitamin C enhancement trial on red sea bream; type: in vivo; conditions: oral
Excerpt: Fish tested: Red sea bream weighing approximately 15.8 g in average.
Trial groups: Three groups, i.e., an octanoic-acid added group in which fish were fed diets added with octanoic acid, an octanoic-acid added/vitamin-C enhanced group in which fish were fed diets added with both octanoic acid and vitamin C, and a control group in which fish were fed diets not added with octanoic acid. The feeding rate was 3% of fish weight/day for each group.
Trial diets: The diets added with octanoic acid were prepared by spraying 2.5 g of octanoic acid to 1 kg of commercially available pellets for red sea bream. The diets added with both octanoic acid and vitamin C were prepared by spraying 200 mg of vitamin C, dissolved in water, to 1 kg of the above diets added with octanoic acid. The control group fish were fed the commercially available pellets for red sea bream.
Challenge trial: Each 30 pieces of fish from among a shoal of fish, in which no diseases such as Cryptocaryon irritans infection were found, were put in a 100-liter water tank, and were fed the respective trial diets. After 5 days, approximately 2000 individuals of theronts of Cryptocaryon irritans were put into each water tank to infect the fish while water flow was stopped for 1 hour. Then, bleeding was continued for 60 days. During the trial period, the water temperature was 24+−1 degrees centigrade and the water was exchanged at 20 cycles/day.
Evaluation was made by sampling 5 pieces of fish from each group after 18 and 31 days from the start of the challenge, comparing the number of the parasites attaching to the gill of each fish, and comparing mortality of the fish during the trial period between the respective groups.

[3] = Growth trial: tiger puffer fed basal diet supplemented with 0.5% octanoic acid; type: in vivo
Description: The inventors conducted trials using tiger puffer to test whether the octanoic acid adversely affects growth of fish. Two trial groups were prepared; i.e., one group fed the basal diet supplemented with 0.5% of octanoic acid (5 g of octanoic acid added for 1 kg of diet), and the other group fed the basal diet alone. Trial conditions were that 50 pieces of tiger puffer for each group were put in a 1-t water tank, and the puffs were fed twice per day, i.e., in the morning and evening. A bleeding trial period was 45 days and the water temperature was 25+−1 degrees centigrade during the trial period.

[4] = Trial 9: tolerance of tiger puffer to immersion in seawater containing octanoic acid; type: in vivo
Excerpt: Each group, i.e., 130 g of tiger puffer, was immersed in 2-liter seawater containing octanoic acid at 100 ppm, 200 ppm and 400 ppm, followed by observation.

[5] = test system: Heterobothrium okamotoi; test: Trial 1: in vitro immersion of oncomiracidia and gill-attached larvae in fatty acid seawater solutions; type: cell-based; conditions: 1 mM in seawater, 20 degrees centigrade
Description: Fatty acids having carbon number C2, C4 and C6-C10 were each dissolved in seawater at 1 mM concentration, and oncomiracidia of Heterobothrium okamotoi and larvae attaching to the gill were immersed in the seawater solutions. After 2 hours from the start of immersion, the efficacy of the fatty acids was investigated by counting the number of dead oncomiracidia and the number of larvae dropping down from the gill. More than 30 individuals of parasites were transferred to each group.
For any of the groups, the trial was made under condition of 20 degrees centigrade.

[6] = test system: Benedenia seriolae; test: Trial 5: oral octanoic acid, field trial on amberjack; type: in vivo; conditions: 8 g octanoic acid per 1 kg pellets, 9 days
Description: (§1) Fish tested: Amberjack weighing approximately 117 g in average.
(§2) Trial groups: Two groups, i.e., an octanoic-acid added group in which fish were fed diets added with octanoic acid, and a control group in which fish were fed diets not added with octanoic acid. The feeding rate was 3% of fish weight/day for each group.
(§3) Trial diets: The diets added with octanoic acid were prepared by spraying 8 g of octanoic acid to 1 kg of commercially available pellets for amberjack. The control group fish were fed the commercially available pellets for amberjack.
(§4) Trial: The trial was conducted using off-shore net pens of 10×10×9 m placed in the field sea. Each 15000 pieces of fish for each group were treated with a parasiticide containing commercially available hydrogen peroxide as a main ingredient, and then put in each net pen. At this time, it was confirmed that Heteraxine heterocerca parasitizing to the gill and Benedenia seriolae parasitizing on the body surface were eliminated, by investigating 20 pieces of fish for each group. It was also simultaneously confirmed that blood flukes (Pradeontacylix) were present in the fish, by investigating the presence of eggs in the gill filaments. Then, bleeding was continued for 9 days while feeding the trial diets. The water temperature during the trial period was in the range of 18.5-20.0 degrees centigrade.
(§5) Evaluation was made by sampling 20 pieces of fish from each group after 9 days from the start of the bleeding, and counting and comparing the number of Heteraxine heterocerca in the gill of each sampled fish, the number of Benedenia seriolae on the body surface, and the number of eggs of blood flukes (Paradeontacylix) in the gill filaments.

[7] = test system: blood flukes (Paradeontacylix); test: as above; type: in vivo; conditions: 8 g octanoic acid per 1 kg pellets, 9 days
Description: as §1, §2, §3, §4, §5

[8] = test system: Heteraxine heterocerca; test: as above; type: in vivo; conditions: 8 g octanoic acid per 1 kg pellets, 9 days
Description: as §1, §2, §3, §4, §5

[9] = test system: Heterobothrium okamotoi larvae; test: Immersion of Heterobothrium okamotoi larvae in seawater with dissolved octanoic acid; type: cell-based; conditions: seawater in which octanoic acid was dissolved
Description: Larvae of parasites Heterobothrium okamotoi were immersed in seawater in which octanoic acid was dissolved. […] Octanoic acid is an edible natural material contained in palm oil, butter and nuts, and has been used in a drug applied to dyspeptics, for example.

## CCCCCCCC(=O)O [octanoic acid]
[1]; before treatment 193/2 cm^2
  number of parasites attaching to the body surface: 261 /2 cm^2
[1]; before treatment 624
  number of parasites attaching to the gill: 356 per branchial arch
[1]; of 261
  body-surface parasites that showed movement and seemed still alive: 9
[1]; of 356
  gill parasites that showed movement and seemed still alive: 193
[2]; 2.5 g octanoic acid per 1 kg pellets (with or without 200 mg vitamin C per kg)
  number of parasites attaching to the gill after 18 and 31 days: apparently fewer
[2]; 2.5 g octanoic acid per 1 kg pellets (with or without 200 mg vitamin C per kg), 60 days
  fish mortality during the trial: all dead
[2]; 2.5 g octanoic acid per 1 kg pellets
  time at which the fish began dying, versus control: later
[3]; continued for succeeding seven months
  died fish: no died fish
[3]; in vivo
  adverse effects on puffer growth: adverse effects on the puffer growth were not found
  content of octanoic acid in the edible muscle: no octanoic acid was detected
[4]; after immersion at 100 ppm
  condition when returned to seawater: no abnormality
[4]; after immersion at 200 ppm
  time to restore to a normal condition after return to seawater: approximately 30 minutes
[4]; after immersion at 400 ppm, almost dying condition
  time to restore to a normal condition after return to seawater: approximately 60 minutes
[4]; immersion, 100 ppm octanoic acid in seawater
  observation of fish after 60 minutes: a swimming activity of the fish was slightly lowered, but no abnormality was found in the fish
[4]; immersion, 200 ppm
  time at which fish began to lie down: 60 min
  time until swimming activity was apparently lowered: 30 min
[4]; immersion, 400 ppm
  time at which fish became almost dying: 9 min
  time at which fish began to lie down: 3 min
[4]; observed for 7 days after immersion
  observation of fish returned to seawater: no abnormality was found
[5]
  emergence of dead oncomiracidia: emerged earliest
[5]; 2 hours
  larvae dropping down from the gill (drop-down rate): highest drop-down rate
[6]
  number of Benedenia seriolae on the body surface, versus control: no appreciable difference
[7]
  eggs of blood flukes in the gill filaments: no eggs of blood flukes were observed
[8]
  number of Heteraxine heterocerca in the gill, versus control: apparently fewer
[9]
  effect on larvae: died due to the occurrence of structural damages (such as vacuolation)
